Read-outs that look alike come from different tables or passages of the source.
What was measured:
Format in all cases: in vivo
Myzus persicae = system: Myzus persicae
Method: (§1) To produce a suitable preparation of active compound, 1 part by weight of active compound is mixed with the stated amounts of solvent and emulsifier, and the concentrate is diluted with emulsifier-containing water to the desired concentration.
Cabbage leaves (Brassica oleracea) which are heavily infested by the green peach aphid (Myzus persicae) are treated by being dipped into the preparation of active compound of the desired concentration.
After the desired period of time, the kill in % is determiined. 100% means that all aphids have been killed; 0% means that none of the aphids have been killed. The determined kill rates are entered into Colby's formula.

[1] = system: Phaedon cochleariae larvae; experiment: Phaedon cochleariae larvae test (cabbage leaf dip)
Method: Phaedon Cochleariae Larvae Test
as §1
Cabbage leaves (Brassica oleracea) are treated by being dipped into the active compound preparation of the desired concentration and are populated with larvae of the mustard beetle (Phaedon cochleariae) while the leaves are still moist.
After the desired period of time, the kill in % is determined. 100% means that all larvae have been killed; 0% means that none of the larvae have been killed. The determined kill rates are entered into Colby's formula.

[2] = system: Plutella xylostella, resistant strain; conditions: Table A, 20 ppm, caterpillars on dipped cabbage leaves
Method: Plutella Xylostella Test, Resistant Strain
as §1
Cabbage leaves (Brassica oleracea) are treated by being dipped into the active compound preparation of the desired concentration and are populated with caterpillars of the diamondback moth (Plutella xylostella, resistant strain) while the leaves are still moist.
After the desired period of time, the kill in % is determined. 100% means that all caterpillars have been killed; 0% means that none of the caterpillars have been killed. The determined kill rates are entered into Colby's formula.

How did the “Kill in % after 1 d” value (Myzus persicae; Table B1, 4 ppm) turn out when CNC(=O)O/N=C/C(C)(C)SC [aldicarb] was run?
Its value is 45%.

And the “Kill in % after 1 d” value ([1]; Table C1, 20 ppm)?
Its value is 25%.

What about the “Kill in % after 1 d” value ([1]; Table C2, 20 ppm) of the same compound?
The value was 25%.

Which “Kill in % after 6 days” value [2] does the source give for CN/C(=N/[N+](=O)[O-])NCc1cnc(Cl)s1 [clothianidin] here?
Its value is 0%.

And the “Kill in % after 1 d” value (Myzus persicae; Table B1, 0.80 ppm)?
Its value is 50%.

And the “Kill in % after 1 d” value ([1]; Table C2, 4 ppm)?
Its value is 65%.

How did the “Kill in % after 1 d” value (Myzus persicae; Table B1, 0.16 ppm) turn out when O=[N+]([O-])N=C1NCCN1Cc1ccc(Cl)nc1 [imidacloprid] was run?
The value was 20%.

And the “Kill in % after 1 d” value (Myzus persicae; Table B2, 0.16 ppm)?
Its value is 10%.

What about the “Kill in % after 1 d” value ([1]; Table C1, 4 ppm) of the same compound?
Its value is 5%.

What about the “Kill in % after 1 d” value ([1]; Table C2, 4 ppm) of the same compound?
The value was 20%.

For ethoprophos, which “Kill in % after 6 days” value [2] is on record?
Its value is 5%.

What about the “Kill in % after 1 d” value (Myzus persicae; Table B2, 20 ppm) of the same compound?
Its value is 0%.
